# Legend:
# rats [1] = experiment: Health observations (death, grooming, weight loss) during the morphine tolerance experiment; details: for rats that died due to drug administration: GM1 or dextrorphan treatment groups; for overall toxicity: conclusion of Example 4; for grooming and weight: ganglioside GM1 or dextrorphan treatment groups
# Sprague-Dawley rats [2] = experiment: Development of morphine tolerance with systemic treatment, tail-flick test; type: in vivo, rat; details: for inhibition of the development of morphine tolerance: FIG. 6
# Sprague-Dawley rats [3] = experiment: Naloxone-produced jumping (withdrawal symptom) in morphine-treated rats; type: in vivo, rat
# rats [4] = experiment: Development of morphine tolerance with intrathecal treatment, tail-flick test; type: in vivo, rat; details: for analgesic effect of morphine (tail-flick latency) on day 8: 100 or 50 nmol intrathecal immediately before each morphine 10 μg; for dose relation of the prevention of morphine tolerance: intrathecal; for prevention of the development of morphine tolerance: intrathecal administration immediately before each once daily intrathecal morphine sulfate 10 μg, FIGS. 7-10
# Experimental: Morphine sulfate 10 μg was delivered once daily through an intrathecal (spinal) canula implanted 5 days before the first morphine injection. Ganglioside GM1 or saline also was delivered intrathecally 30 minutes before each morphine injection.
# Intrathecal ganglioside GM1 was given 30 min before each morphine administration. […] Vertical bars are standard errors. Maximal possible effects (MPE) were calculated by the formula % MPE=[(TL−BL)/(10−BL)]×100. TL: actual tail-flick latency; BL: baseline latency obtained before the first morphine injection; 10: cut-off time for radiant heat stimulation.
# Calmodulin is an intracellular colactor necessary for the nitric oxide pathway that can be initiated upon NMDA receptor activation. […] Each data point in FIGS. 7-10 represents the mean of a group of rats (n=6) and standard errors are shown by vertical lines. The asterisks refer to statistical differences (α=0.05) between the saline group and each other group.
molecule,measurement,setting,value
"CN1CC[C@]23CCCC[C@H]2[C@H]1Cc1ccc(O)cc13 [dextrorphan, (+)-3-hydroxy-N-methylmorphinan]",rats that died due to drug administration,rats [1],None
same,overall toxicity,rats [1],nontoxic
same,grooming and weight,rats [1],continued to appear well groomed and did not show weight loss
same,analgesic effect of the morphine on coadministration,Sprague-Dawley rats [2]; coadministration of dextrorphan with morphine,remains substantially unaffected
same,prevention of the development of morphine tolerance (tail-flick latency),"Sprague-Dawley rats [2]; dextrorphan 1.56, 3.13, 6.25, 12.5 mg/kg i.p. 30 min prior to each morphine 10 mg/kg s.c. twice daily, vs saline control, FIG. 1",potently prevented the development of morphine tolerance
same,incidence of jumping after naloxone 2 mg/kg s.c.,"Sprague-Dawley rats [3]; dextrorphan 3.13 and 6.25 mg/kg, morphine 10 mg/kg twice daily for 9 days, vs MOR+SAL, FIG. 2",significantly reduced the incidence of jumping
"C[C@]12N[C@H](Cc3ccccc31)c1ccccc12 [MK 801, 5-methyl-10,11-dihydro-SH-dibenzo[a,d]cyclohepten-5,10-imine]",rats that died before the completion of the experiment,"rats [1]; 0.3 mg/kg, 3 out of 6",50%
same,grooming and weight of the remaining rats,rats [1]; MK 801 0.3 mg/kg,apparently poor grooming and weight loss
same,overall toxicity,rats [1],severe cytotoxic effects
same,inhibition of the development of morphine tolerance,Sprague-Dawley rats [2]; MK 801 0.3 mg/kg,inhibited the development of morphine tolerance
"Cl.NCCCCCCNS(=O)(=O)c1cccc2c(Cl)cccc12 [W-7, N-(6-aminohexyl)-5-chloro-1-naphthalenesulfonamide hydrochloride]",analgesic effect of morphine (tail-flick latency) on day 8,rats [4],showed a reliable analgesic effect of morphine
same,dose relation of the prevention of morphine tolerance,rats [4],100=50 nmol>25=12.5 nmol
same,prevention of the development of morphine tolerance,rats [4],effectively prevent the development of morphine tolerance
ganglioside GM1,"prevention of morphine tolerance (maximal possible effects, % MPE)","rats [4]; intrathecal ganglioside GM1 30 min before each once daily intrathecal morphine 10 μg, Day 8, 15-240 minutes after morphine, vs saline, FIG. 5",effectively prevented the development of morphine tolerance
same,"order of doses, maximal possible analgesia effects of morphine","rats [4]; intrathecal ganglioside GM1, Day 8",160 nmol>80=40 nmol
same,rats that died due to drug administration,rats [1],None
same,overall toxicity,rats [1],nontoxic
same,grooming and weight,rats [1],continued to appear well groomed and did not show weight loss
same,inhibition of the development of morphine tolerance,Sprague-Dawley rats [2]; ganglioside GM1 60 mg/kg,inhibited the development of morphine tolerance to the degree equivalent to that induced by 0.3 mg/kg MK 801
same,tail flick latency versus saline-treated rats,"Sprague-Dawley rats [2]; ganglioside GM1 10, 30, 60 mg/kg systemic, 1 hour before each morphine, days 5, 7, 9 and 10 of repeated morphine, FIG. 3",remained significantly longer than that of saline-treated rats
same,comparison of doses for prevention of morphine tolerance,"Sprague-Dawley rats [2]; ganglioside GM1 systemic, 10, 30, 60 mg/kg, FIG. 3",30 and 60 mg/kg were more effective at days 9 and 10 than 10 mg/kg
same,number of jumps after naloxone 2 mg/kg s.c.,"Sprague-Dawley rats [3]; GM1 10, 30 and 60 mg/kg systemic, morphine 10 mg/kg twice daily for 9 days, vs MOR+SAL, FIG. 4",effective
same,most effective dose tested against naloxone-produced jumping,"Sprague-Dawley rats [3]; GM1 systemic, doses 10, 30, 60 mg/kg",60 mg/kg
"CN1CCN(CCCN2c3ccccc3Sc3ccc(C(F)(F)F)cc32)CC1 [TFP, trifluoperazine]",analgesic effect of morphine (tail-flick latency) on day 8,rats [4],showed a reliable analgesic effect of morphine
same,dose relation of the prevention of morphine tolerance,rats [4],100=50 nmol>25=12.5 nmol
same,prevention of the development of morphine tolerance,rats [4],effectively prevent the development of morphine tolerance
"CN1CC[C@]23c4c5ccc(O)c4O[C@H]2[C@@H](O)C=C[C@H]3[C@H]1C5.O=S(=O)(O)O [morphine, morphine sulfate]","response to morphine (tolerance), control group","rats [4]; once daily intrathecal morphine 10 μg + saline, Day 8, each tested time point",marked reduction in response to morphine
same,"tolerance to the analgesic effect (tail-flick latencies vs baseline, day 1)",rats [4]; once daily intrathecal morphine sulfate 10 μg and saline for 7 consecutive days,developed tolerance to the analgesic effect or morphine
same,post-drug tail-flick latency scores,"Sprague-Dawley rats [2]; measured 1 hour after drug administration, first 5 days of daily administration, morphine 10 mg/kg s.c. twice daily, baseline 4-5 seconds",~10 s
same,"response to morphine (tolerance), control group","Sprague-Dawley rats [2]; morphine 10 mg/kg s.c. twice daily + saline, at 7 and 9 days",marked reduction in response to morphine
